For 28 compounds, IC50 and selectivity ratio results are on record in ChEMBL document CHEMBL4808251, “Preparation, biological & cheminformatics-based assessment of N2,N4-diphenylpyrimidine-2,4-diamine as potential Kinase-targeted antimalarials” (Bioorg Med Chem, 2021).

For data set [1], the system named is HepG2. Briefly: Cytotoxicity against human HepG2 cells assessed as inhibition of cell growth measured after 72 hrs by resazurin dye based fluorescence assay. The following applies: HepG2, 72 h.
Data set [2] in a line: Selectivity index, ratio of IC50 for cytotoxicity against human HepG2 cells to IC50 for antimalarial activity against chloroquine-sensitive plasmodium falciparum 3D7 infected in human erythrocytes. It is filed as toxicity, cell-based. The following applies: read-out: Ratio IC50.
For data set [3], the system named is Plasmodium falciparum. Briefly: Antimalarial activity against chloroquine-sensitive plasmodium falciparum 3D7 infected in human erythrocytes assessed as parasite growth inhibition measured after 72 hrs by SYBR green dye based fluorescence analysis. Format: functional, organism-based. The following applies: 3D7, Erythrocyte.

For `CN1CCN(c2ccc(Nc3nccc(Nc4ccc5cn[nH]c5c4)n3)cc2)CC1`, the results for the IC50 in data set [1] and in data set [3] were 7 µM and 600 nM, respectively. In data set [2], the selectivity ratio came to 12.

Regarding `O[C@@H](c1cc(C(F)(F)F)nc2c(C(F)(F)F)cccc12)[C@H]1CCCCN1` [(S,R)-MEFLOQUINE], in data set [3], the IC50 was 14 nM.

Regarding `NS(=O)(=O)c1ccc(Nc2ncc(Cl)c(Nc3ccc4nc[nH]c4c3)n2)cc1`, the values for the IC50 in data set [1] and in data set [3] were 7.8 µM and 2500 nM, respectively. Besides, the selectivity ratio in data set [2] stood at 3.1.

As for `CCc1nc(N)nc(N)c1-c1ccc(Cl)cc1` [PYRIMETHAMINE], the IC50 in data set [3] is 4 nM.

For the compound `CN1CCN(c2cccc(Nc3nccc(Nc4ccc5cn[nH]c5c4)n3)c2)CC1`, the results for the concentration for half-maximal inhibition (IC50) in data set [1] and in data set [3] were 6.7 µM and 1100 nM, respectively. Also, the selectivity ratio in data set [2] amounted to 6.1.

In the case of `Cc1c2ccc(Nc3ccnc(Nc4ccc(S(N)(=O)=O)cc4)n3)cc2nn1C`, the half-inhibitory concentration (IC50) in data set [1] was more than 25 µM; in data set [3], 13000 nM. For the same compound, the selectivity ratio in data set [2] was more than 1.9.

Regarding `Cc1ccc(Nc2nccc(Nc3ccc4nc[nH]c4c3)n2)cc1`, the IC50 in data set [1] is more than 25 µM; in data set [3], 1400 nM. Moreover, the selectivity ratio in data set [2] was more than 18.

Regarding `Cc1cccc(Nc2nccc(Nc3ccc4cn[nH]c4c3)n2)c1`, the half-maximal inhibitory concentration (IC50) was found to be 15 µM in data set [1] and 3600 nM in data set [3]. In data set [2], the selectivity ratio amounted to 4.2.

With `Cc1ccc(Nc2nccc(Nc3ccc4cn[nH]c4c3)n2)cc1`, the IC50 in data set [1] came to 18 µM; in data set [3] it was 2500 nM. For the same compound, the selectivity ratio in data set [2] amounted to 7.2.

As to `CN1CCN(c2cccc(Nc3nccc(Nc4ccc5nc[nH]c5c4)n3)c2)CC1`, the results for the concentration for half-maximal inhibition (IC50) in data set [1] and in data set [3] were 11 µM and 870 nM, respectively. The selectivity ratio in data set [2] came out at 13.

In the case of `c1cc(Nc2nccc(Nc3ccc4cn[nH]c4c3)n2)cc(N2CCOCC2)c1`, the results for the concentration for half-maximal inhibition (IC50) in data set [1] and in data set [3] were 16 µM and 4200 nM, respectively. In addition, in data set [2], the selectivity ratio was 3.8.

In the case of `NC(=O)c1ccc(Nc2nccc(Nc3ccc4cn[nH]c4c3)n2)cc1`, the IC50 amounted to 16 µM in data set [1] and 5400 nM in data set [3]. Besides, in data set [2], the selectivity ratio worked out at 3.

Take `Cc1cccc(Nc2ncc(Cl)c(Nc3ccc4nc[nH]c4c3)n2)c1`: the 50% inhibitory concentration (IC50) came to 7.4 µM in data set [1] and 2000 nM in data set [3]. Besides, the selectivity ratio in data set [2] came to 3.7.

For the compound `c1cc(Nc2nccc(Nc3ccc4nc[nH]c4c3)n2)cc(N2CCOCC2)c1`, the IC50 amounted to 9.6 µM in data set [1] and 2400 nM in data set [3]. For the same compound, the selectivity ratio in data set [2] was 4.

With `Cc1cccc(Nc2ncc(C)c(Nc3ccc4nc[nH]c4c3)n2)c1`, the 50% inhibitory concentration (IC50) in data set [1] came out at 6.6 µM; in data set [3], 770 nM. In addition, the selectivity ratio in data set [2] came to 8.6.

With `NS(=O)(=O)c1cccc(Nc2nccc(Nc3ccc4nc[nH]c4c3)n2)c1`, the IC50 in data set [1] was more than 25 µM; in data set [3], 4200 nM. In addition, in data set [2], the selectivity ratio is more than 6.

With `CS(=O)(=O)Nc1cccc(Nc2nccc(Nc3ccc4nc[nH]c4c3)n2)c1`, the figures for the 50% inhibitory concentration (IC50) in data set [1] and in data set [3] were more than 25 µM and 2800 nM, respectively. Further, in data set [2], the selectivity ratio was more than 8.9.

As for `Brc1cccc(Nc2nccc(Nc3ccc4cn[nH]c4c3)n2)c1`, the half-maximal inhibitory concentration (IC50) in data set [1] is 17 µM; in data set [3], 2600 nM. Further, the selectivity ratio in data set [2] is 6.5.

As for `c1cc(Nc2ccc3nc[nH]c3c2)nc(Nc2ccc(N3CCOCC3)cc2)n1`, the IC50 in data set [1] is more than 25 µM; in data set [3], 3200 nM. Further, in data set [2], the selectivity ratio is more than 7.8.

Take `c1cc(Nc2ccc3cn[nH]c3c2)nc(Nc2ccc(N3CCOCC3)cc2)n1`: the IC50 in data set [1] was 8 µM; in data set [3] it was 2200 nM. Besides, in data set [2], the selectivity ratio worked out at 3.6.

In the case of `Cc1c2ccc(Nc3ccnc(Nc4cccc(S(N)(=O)=O)c4)n3)cc2nn1C`, the figures for the IC50 in data set [1] and in data set [3] were 19 µM and 10000 nM, respectively. Besides, the selectivity ratio in data set [2] stood at 1.9.

For `Cc1cnc(Nc2ccc(S(N)(=O)=O)cc2)nc1Nc1ccc2nc[nH]c2c1`, the figures for the IC50 in data set [1] and in data set [3] were 18 µM and 3200 nM, respectively. For the same compound, the selectivity ratio in data set [2] came to 5.6.

For `NS(=O)(=O)c1ccc(Nc2nccc(Nc3ccc4nc[nH]c4c3)n2)cc1`, the half-inhibitory concentration (IC50) is more than 25 µM in data set [1] and 8200 nM in data set [3]. In data set [2], the selectivity ratio was more than 3.

Take `Cc1cccc(Nc2nccc(Nc3ccc4nc[nH]c4c3)n2)c1`: the IC50 came to 20 µM in data set [1] and 980 nM in data set [3]. In addition, in data set [2], the selectivity ratio amounted to 20.

`C[C@H]1[C@@H](O)O[C@@H]2O[C@@]3(C)CC[C@H]4[C@H](C)CC[C@@H]1[C@@]24OO3` [ARTENIMOL]: the half-maximal inhibitory concentration (IC50) in data set [3] worked out at 31 nM.

For the compound `O=C(O)c1ccc(Nc2nccc(Nc3ccc4nc[nH]c4c3)n2)cc1`, the IC50 in data set [1] was more than 25 µM; in data set [3] it was 8200 nM. Further, the selectivity ratio in data set [2] was more than 3.

On to `NS(=O)(=O)c1ccc(Nc2nccc(Nc3ccc4cn[nH]c4c3)n2)cc1`, for which the results for the IC50 in data set [1] and in data set [3] were 22 µM and 19000 nM, respectively. Also, the selectivity ratio in data set [2] was found to be 1.2.

Turning to `Brc1ccc(Nc2nccc(Nc3ccc4cn[nH]c4c3)n2)cc1`, the concentration for half-maximal inhibition (IC50) was determined as 20 µM in data set [1] and 1600 nM in data set [3]. Moreover, the selectivity ratio in data set [2] is 13.
